In the test the target is Sphingosine 1-phosphate receptor 4 (Homo sapiens) (UniProt O95977). As to the kind of experiment: potency of S1P4 blockers – cell-based, fluorescence, synthesized analogues, late-stage follow-up (AID 2346). Particulars: S1P4-expressing cells, antagonist fluorescence read-out.
Sequence of Sphingosine 1-phosphate receptor 4 (Homo sapiens) (O95977 whole entry, looked up): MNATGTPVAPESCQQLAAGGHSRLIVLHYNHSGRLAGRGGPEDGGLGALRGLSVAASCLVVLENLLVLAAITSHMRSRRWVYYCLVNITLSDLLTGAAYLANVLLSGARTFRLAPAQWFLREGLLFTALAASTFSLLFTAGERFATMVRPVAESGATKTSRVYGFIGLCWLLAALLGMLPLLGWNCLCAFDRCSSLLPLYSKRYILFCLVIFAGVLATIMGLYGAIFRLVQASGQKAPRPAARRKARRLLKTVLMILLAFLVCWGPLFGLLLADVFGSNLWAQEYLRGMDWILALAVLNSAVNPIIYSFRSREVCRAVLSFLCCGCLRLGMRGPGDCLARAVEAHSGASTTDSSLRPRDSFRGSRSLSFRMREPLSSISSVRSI

`Cc1ccc2ccccc2c1NC(=O)c1ccc(-c2cc(Cl)ccc2Cl)o1`: the IC50 is 253 nM.

For the molecule `Cc1cccc(Cl)c1NC(=O)c1ccc(-c2cc(Cl)ccc2Cl)o1`, the IC50 is 169 nM.

For `Cc1ccc(S(C)(=O)=O)c(C)c1NC(=O)c1ccc(-c2cc(Cl)ccc2Cl)o1`, the IC50 is 302 nM.

Regarding `Cc1cscc1-c1ccc(C(=O)Nc2c(C)cccc2C)o1`, the IC50 was 286 nM.

Consider `Cc1cccc(C)c1NC(=O)c1ccc(-c2cccc(Cl)c2)o1`, for which the IC50 is 497 nM.

For `CCc1cccc(CC)c1NC(=O)c1ccc(-c2cc(Cl)ccc2Cl)o1`, the IC50 is 89 nM.

For the molecule `CC(C)c1cccc(C(C)C)c1NC(=O)c1ccc(-c2cc(Cl)ccc2Cl)o1`, the IC50 was 105 nM.

In the case of `COc1cccc(C)c1NC(=O)c1ccc(-c2cc(Cl)ccc2Cl)o1`, the IC50 was 163 nM.

For the molecule `Cc1ccc(C)c(NC(=O)c2ccc(-c3cc(Cl)ccc3Cl)o2)c1`, the IC50 is 165 nM.

As to `COc1cccc(OC)c1NC(=O)c1ccc(-c2cc(Cl)ccc2Cl)o1`, the IC50 is 417 nM.

On to `Cc1cccc(C)c1NC(=O)c1ccc(-c2cc(F)ccc2F)o1`, for which the IC50 was 308 nM.
